In patent US9055743B2, “Alpha, beta-unsaturated imines” (BAYER INTELLECTUAL PROPERTY GMBH, priority 2010, dated 2015):

Experiments:
Format in all cases: in vivo
[1] = system: Ctenocephalides felis; assay: Ctenocephalides felis oral test (CTECFE); settings: 100 ppm in citrated cattle blood, after two days
Procedure: Ctenocephalides Felis Oral Test (CTECFE)
Solvent: 1 Part by Weight of Dimethyl Sulphoxide
To produce a suitable preparation of active compound, 10 mg of active compound are mixed with 0.5 ml of dimethyl sulphoxide. Part of the concentrate is diluted with citrated cattle blood, and the desired concentration is prepared.
About 20 unfed adult fleas (Ctenocephalides felis) are placed into a chamber which is closed at the top and bottom with gauze. A metal cylinder whose bottom end is closed with parafilm is placed onto the chamber. The cylinder contains the blood/active compound preparation, which can be taken up by the fleas through the parafilm membrane. After two days, the kill in % is determined 100% means that all fleas have been killed; 0% means that none of the fleas have been killed.

[2] = system: Boophilus microplus; assay: Boophilus microplus test (BOOPMI injection); settings: 20 μg/animal, injection into the abdomen, after 7 days
Procedure: Boophilus microplus Test (BOOPMI Injection)
(§1) Solvent: Dimethyl Sulphoxide
To produce a suitable preparation of active compound, 10 mg of active compound are mixed with 0.5 ml of solvent and the concentrate is diluted with solvent to the desired concentration. The solution of active compound is injected into the abdomen (Boophilus microplus), and the animals are transferred into dishes and kept in a climatized room. The activity is assessed by […] of fertile eggs.
After 7 days, the effect in % is determined 100% means that none of the ticks has laid any fertile eggs.

[3] = system: cat fleas (Ctenocephalides felis, fully sensitive laboratory strain); assay: Contact test against fleas in-vitro (CTECFE contact); settings: for activity against cat fleas: 500 g/ha, after 48 h
Procedure: Contact Test Against Fleas In-Vitro (CTECFE Contact)
An amount of 0.9 mg of active compound is weighed out, and 1 ml of acetone is added.
Of this acetone solution, either […] are transferred directly into roll-necked test tubes or an aliquot is diluted with 4 parts of acetone 1:5. For its part, 250 μl of this dilution are pipetted into roll-necked test tubes, or the dilution is diluted further, etc., until the desired number of dilution steps is reached.
The roll-necked test tubes containing the solution of the active compound in acetone are immediately coated in a fume cupboard by 2 h of swing rotation at 30 rpm. After evaporation of the solvent, the active compound contained in the acetone gives, at the highest concentration tested, an active compound content of 500 g/ha (or 500 μg/dm^2) on the surface of the test tube.
10-20 Adult cat fleas (Ctenocephalides felis, fully sensitive laboratory strain) anesthetized with CO2 are transferred into the test tubes prepared in this manner, and the test tubes are closed with a plastic roll-necked lid provided with fine holes.
The test tubes are stored vertically at room temperature and humidity for 24 or 48 h. After 24 and 48 h, the activity of the active compound applied is determined by comparison with an acetone-treated control. Here, an observed normal activity for all fleas corresponds to 0% activity, a strongly restricted or uncoordinated (knock-down) movement or death of all fleas corresponds to 100% activity.

[4] = system: caterpillars of the army worm (Spodoptera frugiperda); assay: Spodoptera frugiperda test (SPODFR spray treatment); settings: for activity (caterpillars killed) / pest or weed control at 500 g/ha: 500 g/ha, spray, after 7 days; for pest or weed control at 500 g/ha: Spodoptera frugiperda, 168 h, read-out: activity (caterpillars killed)
Procedure: Spodoptera frugiperda Test (SPODFR Spray Treatment) Solvents: 78.0 parts by weight of acetone • • 1.5 parts by weight of dimethylformamide Emulsifier: 0.5 part by weight of alkylaryl polyglycol ether
(§2) To produce a suitable preparation of active compound, 1 part by weight of active compound is mixed with the stated amounts of solvents and emulsifier, and the concentrate is diluted with emulsifier-containing water to the desired concentration.
Discs of maize leaves (Zea mays) are sprayed with an active compound preparation of the desired concentration and, after drying, populated with caterpillars of the army worm (Spodoptera frugiperda) besetzt.
After 7 days, the activity in % is determined. 100% means that all caterpillars have been killed; 0% means that none of the caterpillars have been killed.

[5] = system: Lucilia cuprina larvae; assay: Lucilia cuprina test (LUCICU); settings: 100 ppm, after 2 days
Procedure: Lucilia cuprina Test (LUCICU)
as §1
To produce a suitable preparation of active compound, 10 mg of active compound are mixed with 0.5 ml of dimethyl sulphoxide and the concentrate is diluted with water to the desired concentration. Vessels containing horsemeat treated with the active compound preparation of the desired concentration are populated with about 20 Lucilia cuprina larvae.
After 2 days, the kill in % is determined. 100% means that all larvae have been killed; 0% means that none of the larvae have been killed.

[6] = system: larvae of the mustard beetle (Phaedon cochleariae); assay: Phaedon test (PHAECO spray treatment); settings: for activity (beetle larvae killed) / pest or weed control at 500 g/ha: 500 g/ha, spray, after 7 days; for pest or weed control at 500 g/ha: Phaedon cochleariae, 168 h, read-out: activity (beetle larvae killed)
Procedure: Phaedon Test ([…] Spray Treatment) Solvents: 78.0 parts by weight of acetone • • 1.5 parts by weight of dimethylformamide Emulsifier: 0.5 part by weight of alkylaryl polyglycol ether To produce a suitable preparation of active compound, 1 part by weight of active compound is mixed with the stated amounts of solvents and emulsifiers, and the concentrate is diluted with emulsifier-containing water to the desired concentration. Discs of Chinese cabbage leaves (Brassica pekinensis) are sprayed with an active compound preparation of the desired concentration and, after drying, populated with larvae of the mustard beetle (Phaedon cochleariae).

[7] = system: green peach aphid (Myzus persicae); assay: Myzus test (MYZUPE spray treatment); settings: for activity (aphids killed) / pest or weed control at 500 g/ha: 500 g/ha, spray, after 6 days; for pest or weed control at 500 g/ha: Myzus persicae, 144 h, read-out: activity (aphids killed)
Procedure: Myzus Test (MYZUPE Spray Treatment) Solvents: 78 parts by weight of acetone • • 1.5 parts by weight of dimethylformamide Emulsifier: 0.5 part by weight of alkylaryl polyglycol ether
as §2
Discs of Chinese cabbage leaves (Brassica pekinensis) which are infested by all stages of the green peach aphid (Myzus persicae) are sprayed with an active compound preparation of the desired concentration.
After 6 days, the activity in % is determined. 100% means that all aphids have been killed; 0% means that none of the aphids have been killed.

[8] = system: greenhouse red spider mite (Tetranychus urticae); assay: Tetranychus test; OP-resistant (TETRUR spray treatment); settings: for activity (spider mites killed) / pest or weed control at 500 g/ha: 500 g/ha, spray, after 6 days; for pest or weed control at 500 g/ha: Tetranychus urticae, 144 h, read-out: activity (spider mites killed)
Procedure: Tetranychus Test; OP-Resistant (TETRUR Spray Treatment) Solvents: 78.0 parts by weight of acetone • • 1.5 parts by weight of dimethylformamide Emulsifier: 0.5 part by weight of alkylaryl polyglycol ether
as §2
Discs of bean leaves (Phaseolus vulgaris) infested by all stages of the greenhouse red spider mite (Tetranychus urticae) are sprayed with an active compound preparation of the desired concentration.
After 6 days, the activity in % is determined. 100% means that all spider mites have been killed; 0% means that none of the spider mites have been killed.

[9] = system: Anopheles gambiae (homocygus kdr); assay: Anopheles test (ANPHGB surface treatment); settings: for knock-down activity: 100 mg/m^2, two hours after contact, exposition 30 minutes; for mortality at 100 mg/m2: Anopheles gambiae, read-out: activity (mortality in %)
Procedure: Anopheles Test (ANPHGB Surface Treatment) Solvent: Acetone
(§3) To produce a suitable preparation of active compound, the active compound is dissolved in acetone (2 mg/ml). The active compound preparation is pipetted onto a glazed tile and, after drying, adult mosquitoes of the species Anopheles gambiae (homocygus kdr) are placed onto the treated tile. The exposition time is 30 minutes.
(§4) Two hours after contact to the treated surface, the knock-down proportion of the test animals in % is determined.
24 hours after contact to the treated surface, the mortality in % is determined. Here, 100% means that all mosquitoes have been killed; 0% means that none of the mosquitoes has been killed.

[10] = system: Aedes aegypti; assay: Aedes test (AEDSAE surface treatment); settings: for knock-down activity: 100 mg/m^2, two hours after contact, exposition 30 minutes
Procedure: Aedes Test (AEDSAE Surface Treatment)
as §3, with “Aedes aegypti” for “Anopheles gambiae (homocygus kdr)”
as §4
24 hours after contact to the treated surface, the mortality in % is determined Here, 100% means that all mosquitoes have been killed; 0% means that none of the mosquitoes has been killed.

[11] = active compound concentration 100 g/ha
[12] = active compound concentration 500 g/ha

Row | SMILES | activity (kill in %) [1] | activity (100% = none of the ticks has laid any fertile eggs) [2] | activity against cat fleas [3] | activity (caterpillars killed) [4] | activity (kill in %) [5] | activity (beetle larvae killed) [6] | activity (aphids killed) [7] | activity (spider mites killed) [8] | knock-down activity [9] | further results
1 | CC1C(=CSc2ccccc2)C(=Nc2ccc(F)cc2)c2ccccc21 (mixture of isomers) [Example 1-6] | 100% | 100% | 100% | 100% | 100% | 100% | 100% | 100% |  | 
2 | Cc1ccc(N=C2C(=CSc3ccccc3)C(c3ccccc3)c3ccccc32)cc1 (mixture of isomers) [Example 1-20] |  | 100% | 100% | 100% |  | 100% | 100% | 100% |  | 
3 | Cc1ccc(N=C2C(=CSc3ccc(F)cc3)C(C)c3cc(F)ccc32)cc1C (mixture of isomers) [Example 1-63] | 90% | 100% | 100% | 100% |  | 100% | 100% | 100% |  | 
4 | Cc1ccc(N=C2C(=CSc3ccc(F)cc3)C(C)c3cc(C)ccc32)c(C)c1 (mixture of isomers) [Example 1-85] | 90% | 100% | 100% | 100% | 100% | 100% | 100% | 100% | 100% | 
5 | Fc1ccc(N=C2/C(=C/Sc3ccccc3)CCc3ccccc32)cc1 [Example 1-3, 4-Fluoro-N-[(2E)-2-[(phenylsulphanyl)methylene]-3,4-dihydronaphthalen-1(2H)-ylidene]aniline] | 90% | 100% | 100% |  | 100% |  |  |  | 80% | pest or weed control at 500 g/ha [4]: 100%; pest or weed control at 500 g/ha [6]: 100%; pest or weed control at 500 g/ha [7]: 100%; mortality at 100 mg/m2 [9]: 100%; pest or weed control at 500 g/ha [8]: 100%
6 | COc1ccc2c(c1)CCC(=CSc1ccc(F)cc1)C2=Nc1ccc(C)cc1 [Example 1-17] |  |  | 100% | 100% |  | 100% | 100% | 100% | 95% | knock-down activity [10]: 100%
7 | Cc1ccc(N=C2C(=CSc3ccc(F)cc3)C(C)(C)c3ccccc32)cc1 [Example 1-21] |  |  | 100% |  |  |  |  |  |  | Kill rate in % after 2 days ([3]; active compound concentration 0.032 g/ha): 100%; Kill rate in % after 2 days ([3]; active compound concentration 0.16 g/ha): 100%; pest or weed control at 500 g/ha [4]: 100%; Kill rate in % after 7 days [4, 11]: 83%; pest or weed control at 500 g/ha [6]: 100%; Kill rate in % after 7 days [6, 12]: 100%; pest or weed control at 500 g/ha [7]: 100%; Kill rate in % after 6 days [7, 11]: 100%; Kill rate in % after 6 days [7, 12]: 100%; mortality at 100 mg/m2 ([10]; Aedes aegypti, read-out: activity (mortality in %)): 100%; mortality at 100 mg/m2 [9]: 100%; Kill rate in % after 24 hours ([9]; active compound concentration 8 g/ha): 100%; pest or weed control at 500 g/ha [8]: 100%; Kill rate in % after 6 days [8, 11]: 100%; Kill rate in % after 6 days [8, 12]: 100%
8 | CCc1ccc(N=C2C(=CSc3ccc(F)cc3)CCc3ccccc32)cc1 [Example 1-39] |  |  | 100% | 100% |  | 100% | 100% | 80% | 100% | knock-down activity [10]: 100%
9 | Cc1ccc(N=C2C(=CSc3ccccc3Cl)CCc3ccccc32)cc1 [Example 1-69] | 100% | 100% | 100% | 100% | 100% | 100% | 90% | 100% | 90% | 
10 | Cc1ccc(N=C2C(=CSc3cc(F)cc(F)c3)CCc3ccccc32)cc1 [Example 1-81] | 100% | 100% | 100% | 100% | 100% | 100% | 100% | 100% | 100% | 
11 | CCc1ccc2c(c1)CCC(=CSc1ccc(F)cc1)C2=Nc1ccc(C)cc1 [Example 1-84] |  |  | 100% | 100% |  | 100% | 100% | 100% | 100% | knock-down activity [10]: 100%
